Laboratory results reported in US8088805B2, “Inhibitors of histone deacetylase” (MethylGene Inc., priority 2004, dated 2012).

Legend:
[1] = molecular target: T1, cloned recombinant human HDAC-1 enzyme (Homo sapiens, UniProt Q13547); assay: HDAC-1 enzymatic inhibition, Assay 1 ([3H]-acetylated histone substrate); assay type: biochemical; settings: Assay 1: [3H]-labeled acetylated histone substrate, recombinant hHDAC-1
T1 construct: made in house; host or cells: Baculovirus insect cell expression system
Method: Assay 1. HDAC inhibitors were screened against a cloned recombinant human HDAC-1 enzyme expressed and purified from a Baculovirus insect cell expression system. For deacetylase assays, 20,000 cpm of the [^3H]-metabolically labeled acetylated histone substrate (M. Yoshida et al., J. Biol. Chem. 265(28): 17174-17179 (1990)) was incubated with 30 μg of the cloned recombinant hHDAC-1 for 10 minutes at 37° C. The reaction was stopped by adding acetic acid (0.04 M, final concentration) and HCl (250 mM, final concentration). The mixture was extracted with ethyl acetate and the released [^3H]-acetic acid was quantified by scintillation counting. For inhibition studies, the enzyme was preincubated with compounds at 4° C. for 30 minutes prior to initiation of the enzymatic assay. IC50 values for HDAC enzyme inhibitors were determined by performing dose response curves with individual compounds and determining the concentration of inhibitor producing fifty percent of the maximal inhibition.
Assay 1 was used to measure HDAC activity of compounds 10c, 13e, 16d, 26b, 44, 47, 61a, 61b, 63, 134, 138, and 308. Assay 2 was used to measure HDAC activity of compounds 361, 366, 367, 368, 369, 370, 371, 372, 373, 374, 375, 376, 377, and 378. In Table 14, “a” indicates activity of ≦0.1 μM, “b” indicates activity of ≦1 μM, “c” indicates activity of ≦5 μM, and “d” indicates activity of >5 μm. For the H4-Ac T24 EC vs. MS-275 assay in Table 14, “u” indicates less than 1, “v” indicates 1, and “w” indicates greater than 1. For the H3 Ac t24 assay in Table 14, “x” indicates activity of ≦1 μM, “y” indicates activity of ≦10 μM, and “z” indicates activity of ≦20 μM.

[2] = tested on: HCT116 cells; assay: MTT assay; assay type: cell-based; settings: Homo sapiens, HCT-116, 72 hours
Method: HCT116 cells (2000/well) were plated into 96-well tissue culture plates one day before compound treatment. Compounds at various concentrations were added to the cells. The cells were incubated for 72 hours at 37° C. in 5% CO2 incubator. MTT (3-[4,5-dimethylthiazol-2-yl]-2,5diphenyl tetrazolium bromide, Sigma) was added at a final concentration of 0.5 mg/ml and incubated with the cells for 4 hours before one volume of solubilization buffer (50% N,N-dimethylformamide, 20% SDS, pH 4.7) was added onto the cultured cells. After overnight incubation, solubilized dye was quantified by colorimetric reading at 570 nM using a reference at 630 nM using an MR700 plate reader (Dynatech Laboratories Inc.). OD values were converted to cell numbers according to a standard growth curve of the relevant cell line. The concentration which reduces cell numbers to 50% of that of solvent treated cells is determined as MTT IC50. In Table 14, “a” indicates activity of ≦0.1 μM, “b” indicates activity of ≦1 μM, and “c” indicates activity of ≦5 μM.

[3] = tested on: Histone H4 acetylation in T24 human bladder cancer cells; assay: Histone H4 acetylation in whole cells by immunoblots; assay type: cell-based; settings: ratio of EC50 of compound to EC50 of control MS-275, 16 h
Method: T24 human bladder cancer cells growing in culture were incubated with HDAC inhibitors for 16 h. Histones were extracted from the cells after the culture period as described by M. Yoshida et al. (J. Biol. Chem. 265(28): 17174-17179 (1990)). […] of total histone protein was loaded onto SDS/PAGE and transferred to nitrocellulose membranes. Membranes were probed with polyclonal antibodies specific for acetylated histone H-4 (Upstate Biotech Inc.), followed by horse radish peroxidase conjugated secondary antibodies (Sigma). Enhanced Chemiluminescence (ECL) (Amersham) detection was performed using Kodak films (Eastman Kodak). Acetylated H-4 signal was quantified by densitometry. Data are presented as the ratio of the concentration effective for […] the acetylated H-4 signal by 50% (EC50) using the indicated compound of the invention to a control compound, MS-275. If the indicated ratio is 1, then the compound of the invention is as effective as the MS-275 control compound. […] Further information regarding the MS-275 compound can be found in Suzuki et al., J. Med. Chem. 1999, pp. 3001-3003.

[4] = tested on: SW48 colon cancer cells; assay: Human tumor xenograft in vivo, SW48; settings: Mus musculus, 40 mg/kg ip, mice, read-out: % Inhibition (relative to vehicle control) SW48
Method: (§1) Eight to ten week old female BCD1 mice (Taconic Labs, Great Barrington, N.Y.) were injected subcutaneously in the flank area with 2×10^6 preconditioned HCT116 human colorectal carcinoma cells, SW48 colon cancer cells, and A549 lung cancer cells. Preconditioning of these cells was done by a minimum of three consecutive tumor transplantations in the same strain of nude mice. Subsequently, tumor fragments of approximately 30 mgs were excised and implanted subcutaneously in mice, in the left flank area, under Forene anesthesia (Abbott Labs, Geneva, Switzerland). When the tumors reached a mean volume of 100 mm^3, the mice were treated intraperitoneally by daily injection, with a solution of the histone deacetylase inhibitor in DMSO, at a starting dose of 10 mg/kg. The optimal dose of the HDAC inhibitor was established by dose response experiments according to standard protocols. Tumor volume was calculated every second day post infusion according to standard methods (e.g., Meyer et al., Int. J. Cancer 43: 851-856 (1989)).

[5] = tested on: A549 lung cancer cells; assay: Human tumor xenograft in vivo, A549; settings: mice
Method: as §1

[6] = tested on: HCT116 human colorectal carcinoma cells; assay: Human tumor xenograft in vivo, HCT116; settings: Mus musculus, HCT-116; 30 mg/kg ip, mice; read-out: % Inhibition (relative to vehicle control) HCT116
Method: as §1

T1 sequence (Q13547 whole entry): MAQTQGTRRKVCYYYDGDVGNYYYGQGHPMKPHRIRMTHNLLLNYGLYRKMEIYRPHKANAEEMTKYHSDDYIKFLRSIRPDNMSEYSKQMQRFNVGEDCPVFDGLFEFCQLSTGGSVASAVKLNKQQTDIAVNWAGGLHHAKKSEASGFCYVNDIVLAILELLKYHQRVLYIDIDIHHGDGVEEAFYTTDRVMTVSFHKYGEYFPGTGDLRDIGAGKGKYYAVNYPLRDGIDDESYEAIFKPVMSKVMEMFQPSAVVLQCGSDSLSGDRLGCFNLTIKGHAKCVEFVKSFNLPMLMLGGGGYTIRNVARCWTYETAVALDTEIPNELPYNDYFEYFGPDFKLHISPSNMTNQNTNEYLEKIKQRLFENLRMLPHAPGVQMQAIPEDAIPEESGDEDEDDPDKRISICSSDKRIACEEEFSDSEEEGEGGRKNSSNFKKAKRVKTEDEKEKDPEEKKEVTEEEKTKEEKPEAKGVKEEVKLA

Row | IC50 [1] [µM] | IC50 [2] [µM] | Compound | H4-Ac T24 EC vs. MS-275 [3] | inhibition in vivo at 40 mg/kg [4] [%] | % Inhibition (relative to vehicle control) A549 ([5]; 40 mg/kg ip) [%] | inhibition in vivo at 30 mg/kg [6] [%] | % Inhibition (relative to vehicle control) A549 ([5]; 30 mg/kg ip) [%]
1 | 1 to 5 | ≤ 0.1 | Nc1ccccc1NC(=O)c1ccc(CNc2nccc(-c3ccccn3)n2)cc1 [26b, N-(2-Amino-phenyl)-4-[(4-pyridin-2-yl-pyrimidin-2-ylamino)-methyl]-benzamide] | v (“v” indicates 1) | 75.1 | 74.4 |  | 
2 | 1 to 5 | ≤ 0.1 | CN(C)CCOc1ccc2nc(NCc3ccc(C(=O)Nc4ccccc4N)cc3)sc2c1 [compound 138, N-(2-Amino-phenyl)-4-{[6-(2-dimethylamino-ethoxy)-benzothiazol-2-ylamino]-methyl}-benzamide] | u (“u” indicates less than 1) |  |  | 79.8 | 83.7
